ChEMBL document CHEMBL1143222, “Synthesis and in vitro activity of N'-cyano-4-(2-phenylacetyl)-N-o-tolylpiperazine-1-carboximidamide P2X7 antagonists” (Bioorg Med Chem Lett, 2008)
Calls of active or inactive are those of the source. The calls are words filed in the database; no cut-off is given here.

Key:
P2X purinoceptor 7 [1] = target: T1, P2X purinoceptor 7 (Rattus norvegicus, UniProt Q64663); test: Antagonist activity at rat recombinant P2X7 receptor assessed as inhibition of calcium flux by FLIPR assay; type: functional
T1 sequence (Q64663 whole entry): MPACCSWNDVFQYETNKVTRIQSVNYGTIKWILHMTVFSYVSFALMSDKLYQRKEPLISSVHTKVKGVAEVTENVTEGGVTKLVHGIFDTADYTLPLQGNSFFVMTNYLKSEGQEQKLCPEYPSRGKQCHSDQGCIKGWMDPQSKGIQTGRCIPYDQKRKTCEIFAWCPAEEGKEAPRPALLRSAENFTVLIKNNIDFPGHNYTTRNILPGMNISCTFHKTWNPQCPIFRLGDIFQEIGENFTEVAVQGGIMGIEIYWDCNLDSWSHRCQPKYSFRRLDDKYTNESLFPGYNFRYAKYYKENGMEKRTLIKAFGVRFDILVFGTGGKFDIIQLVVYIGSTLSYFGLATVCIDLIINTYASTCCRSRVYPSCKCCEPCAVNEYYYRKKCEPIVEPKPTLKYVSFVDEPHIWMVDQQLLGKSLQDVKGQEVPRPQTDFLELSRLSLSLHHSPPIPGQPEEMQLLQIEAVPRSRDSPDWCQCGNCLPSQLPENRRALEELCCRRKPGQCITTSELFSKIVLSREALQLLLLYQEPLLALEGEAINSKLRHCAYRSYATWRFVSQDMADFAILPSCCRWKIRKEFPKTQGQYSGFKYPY

P2X purinoceptor 7 [2] = target: T2, P2X purinoceptor 7 (Homo sapiens, UniProt Q99572); test: Antagonist activity at human recombinant P2X7 receptor assessed as inhibition of calcium flux by FLIPR assay; type: functional
T2 sequence (Q99572 whole entry): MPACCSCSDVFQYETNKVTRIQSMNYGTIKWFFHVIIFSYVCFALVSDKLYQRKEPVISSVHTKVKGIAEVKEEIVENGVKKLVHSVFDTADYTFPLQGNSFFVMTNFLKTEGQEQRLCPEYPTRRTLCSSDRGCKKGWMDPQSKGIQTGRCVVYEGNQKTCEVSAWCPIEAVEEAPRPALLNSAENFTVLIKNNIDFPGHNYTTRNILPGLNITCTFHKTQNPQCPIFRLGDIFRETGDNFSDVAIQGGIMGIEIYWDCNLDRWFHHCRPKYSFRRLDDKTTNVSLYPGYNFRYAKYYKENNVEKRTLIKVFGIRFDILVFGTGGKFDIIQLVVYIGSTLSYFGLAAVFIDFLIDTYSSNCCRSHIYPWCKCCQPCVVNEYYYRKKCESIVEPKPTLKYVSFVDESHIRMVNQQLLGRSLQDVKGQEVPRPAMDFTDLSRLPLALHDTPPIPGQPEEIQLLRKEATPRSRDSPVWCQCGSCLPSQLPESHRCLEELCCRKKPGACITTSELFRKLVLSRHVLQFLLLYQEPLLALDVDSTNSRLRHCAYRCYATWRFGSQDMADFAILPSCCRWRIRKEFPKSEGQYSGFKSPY

[3] = Inhibition of P2X2/3 receptor at 10 uM
[4] = target: P2Y purinoceptor 2 (Homo sapiens) (UniProt P41231); test: Inhibition of P2Y2 receptor at 10 uM
Chain of P2Y purinoceptor 2 (Homo sapiens) (P41231 whole entry): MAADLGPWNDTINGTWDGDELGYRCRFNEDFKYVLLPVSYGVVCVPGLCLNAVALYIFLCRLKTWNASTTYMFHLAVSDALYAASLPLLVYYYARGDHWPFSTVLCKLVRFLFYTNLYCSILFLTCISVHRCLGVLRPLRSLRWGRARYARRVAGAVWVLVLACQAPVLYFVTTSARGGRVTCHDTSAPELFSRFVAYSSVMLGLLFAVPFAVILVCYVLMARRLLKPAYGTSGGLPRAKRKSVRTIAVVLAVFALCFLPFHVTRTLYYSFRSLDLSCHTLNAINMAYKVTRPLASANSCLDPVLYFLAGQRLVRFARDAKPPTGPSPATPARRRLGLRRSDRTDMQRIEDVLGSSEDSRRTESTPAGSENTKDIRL

[5] = target: T3, P2X purinoceptor 4 (Homo sapiens) (UniProt Q99571); test: Inhibition of P2X4 receptor at 10 uM
T3 sequence (whole entry): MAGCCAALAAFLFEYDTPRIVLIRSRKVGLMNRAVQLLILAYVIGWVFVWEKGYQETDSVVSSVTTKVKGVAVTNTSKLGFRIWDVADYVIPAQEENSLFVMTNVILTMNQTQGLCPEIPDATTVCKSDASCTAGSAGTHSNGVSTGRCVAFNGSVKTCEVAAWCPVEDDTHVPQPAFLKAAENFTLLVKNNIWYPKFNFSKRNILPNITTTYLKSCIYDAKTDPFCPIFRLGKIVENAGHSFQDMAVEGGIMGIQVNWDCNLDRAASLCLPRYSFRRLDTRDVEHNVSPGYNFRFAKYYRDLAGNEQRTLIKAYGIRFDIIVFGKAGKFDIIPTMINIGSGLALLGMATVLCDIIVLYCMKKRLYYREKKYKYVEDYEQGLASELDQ

[6] = target: T4, P2X purinoceptor 3 (Homo sapiens) (UniProt P56373); test: Inhibition of P2X3 receptor at 10 uM
T4 sequence (whole entry): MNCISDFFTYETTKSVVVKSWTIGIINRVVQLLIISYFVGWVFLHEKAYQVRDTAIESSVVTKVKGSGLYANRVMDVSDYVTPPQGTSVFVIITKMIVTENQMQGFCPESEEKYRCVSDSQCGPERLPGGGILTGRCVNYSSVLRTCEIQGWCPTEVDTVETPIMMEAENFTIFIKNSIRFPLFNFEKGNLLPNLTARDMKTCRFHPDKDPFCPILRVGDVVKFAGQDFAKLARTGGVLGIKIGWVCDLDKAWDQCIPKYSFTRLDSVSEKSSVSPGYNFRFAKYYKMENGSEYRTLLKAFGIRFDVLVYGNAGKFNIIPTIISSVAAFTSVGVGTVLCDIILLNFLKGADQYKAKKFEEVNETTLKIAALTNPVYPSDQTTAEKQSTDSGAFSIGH

IC50 (P2X purinoceptor 7 [1]) [nM] | IC50 (P2X purinoceptor 7 [2]) [nM] | Compound | also measured
630 | 1500 | Cc1ccccc1N/C(=N\C#N)N1CCN(C(=O)CC23CC4CC(CC(C4)C2)C3)C(c2ccccc2)C1 (stereo unspecified) | –
140 | 58 | COc1ccc(CC(=O)N2CCN(C(=Nc3ccccc3C)NC#N)CC2c2ccccc2)cc1OC (stereo in doubt; 7) | –
95 | 70 | COc1ccc(CCCC(=O)N2CCN(/C(=N/C#N)Nc3ccccc3C)CC2c2ccccc2)cc1OC (stereo unspecified) | –
420 | 190 | COc1ccc(CC(=O)N2CCN(/C(=N/C#N)Nc3ccccc3C)CC2C(C)(C)C)cc1OC (stereo unspecified) | –
14 | 120 | COc1ccc(CC(=O)NC(NC(=NC#N)Nc2ccccc2C)C(C)(C)C)cc1OC (stereo unspecified) | –
150 | 46 | Cc1ccccc1N/C(=N\C#N)N1CCN(C(=O)Cc2cccs2)C(c2ccccc2)C1 (stereo unspecified) | –
320 | 40 | Cc1ccn(CC(=O)N2CCN(/C(=N/C#N)Nc3ccccc3C)CC2c2ccccc2)n1 (stereo unspecified) | –
– | 44 | COc1ccc(CC(=O)NC(N/C(=N/C#N)Nc2cccc3ncccc23)C(C)(C)C)cc1OC (stereo unspecified) | –
– | – | COc1ccc(C(=O)N2CCN(/C(=N/C#N)Nc3cccc4ncccc34)CC2c2ccccc2)cc1OC (stereo unspecified) | Activity [3]: inactive; Activity [4]: inactive; Activity [5]: inactive; Activity [6]: inactive
140 | 58 | COc1ccc(CC(=O)N2CCN(C(=Nc3ccccc3C)NC#N)CC2c2ccccc2)cc1OC (stereo in doubt; 26) | –
19000 | 460 | COc1ccc(CC(=O)N2C(C)CN(C(=Nc3ccccc3C)NC#N)CC2C)cc1OC (cis isomer) | –
110 | 140 | Cc1ccccc1N=C(NC#N)N1CCN(C(=O)Cc2ccc(Cl)cc2)C(c2ccccc2)C1 (stereo unspecified) | –
220 | 51 | COc1ccc(CC(=O)N2CCN(C(=Nc3ccccc3C)NC#N)C(c3ccccc3)C2)cc1OC (stereo unspecified) | –
380 | 88 | Cc1ccccc1N=C(NC#N)N1CCN(C(=O)Cc2ccccc2)C(c2ccccc2)C1 (stereo unspecified) | –
390 | 40 | Cc1ccccc1N/C(=N\C#N)N1CCN(C(=O)Cc2cccnc2)C(c2ccccc2)C1 (stereo unspecified) | –
610 | 410 | Cc1cc(CC(=O)N2CCN(/C(=N/C#N)Nc3ccccc3C)CC2c2ccccc2)no1 (stereo unspecified) | –
140 | 310 | Cc1ccccc1N/C(=N\C#N)N1CCN(C(=O)Cc2ccc3ccccc3c2)C(c2ccccc2)C1 (stereo unspecified) | –
30 | 59 | COc1ccc(C(=O)N2CCN(C(=Nc3cccc4ncccc34)NC#N)CC2c2ccccc2)cc1OC (stereo unspecified) | –
520 | 110 | Cc1ccccc1N=C(NC#N)N1CCN(C(=O)Cc2ccco2)C(c2ccccc2)C1 (stereo unspecified) | –
150 | 36 | Cc1ccccc1N=C(NC#N)N1CCN(C(=O)Cc2ccncc2)C(c2ccccc2)C1 (stereo unspecified) | –
290 | 94 | COc1ccc(C(=O)N2CCN(C(=Nc3ccccc3C)NC#N)CC2c2ccccc2)cc1OC (stereo unspecified) | –
560 | 60 | Cc1ccccc1N/C(=N\C#N)N1CCN(C(=O)Cn2nccc2C)C(c2ccccc2)C1 (stereo unspecified) | –
270 | 71 | Cc1ccccc1N/C(=N\C#N)N1CCN(C(=O)Cc2ccsc2)C(c2ccccc2)C1 (stereo unspecified) | –
170 | 46 | Cc1cc(CC(=O)N2CCN(C(=Nc3ccccc3C)NC#N)CC2c2ccccc2)on1 (stereo unspecified) | –
14000 | 1000 | Cc1ccccc1N/C(=N\C#N)N1CCN(C(=O)Cc2c[nH]cn2)C(c2ccccc2)C1 (stereo unspecified) | –
16000 | 1300 | COc1ccc(CC(=O)N2CCN(C(=Nc3ccccc3C)NC#N)[C@H](C(C)C)C2)cc1OC | –
76 | 57 | COc1ccc(CCC(=O)N2CCN(/C(=N/C#N)Nc3ccccc3C)CC2c2ccccc2)cc1OC (stereo unspecified) | –
250 | 220 | Cc1ccccc1N/C(=N\C#N)N1CCN(C(=O)Cc2ccoc2)C(c2ccccc2)C1 (stereo unspecified) | –
4500 | 430 | COc1ccc(CC(=O)N2CCN(C(=Nc3ccccc3C)NC#N)[C@H](CC(C)C)C2)cc1OC | –
210 | 100 | Cc1ccccc1N/C(=N\C#N)N1CCN(C(=O)Cc2c[nH]c3ccccc23)C(c2ccccc2)C1 (stereo unspecified) | –
